Values of other authors as cited in US9717704B2, “Method of treating, delaying and/or preventing Alzheimer's Disease” (Smartfish AS, priority 2013, dated 2017).

Key:
[1] = test system: PBMCs / macrophages of AD patients; conditions: in vitro (Mizwicki et al. 2013)
amyloid-beta = conditions: cell lines (Marambaud, Zhao et al. 2005)

## C=C1/C(=C\C=C2/CCC[C@]3(C)[C@@H]([C@H](C)CCCC(C)(C)O)CC[C@@H]23)C[C@@H](O)C[C@@H]1O [1,25dihydroxyvitamin D3]
[1]
  Abeta phagocytosis: repair
  deregulation of inflammatory genes: repair the deregulation of these genes

## CC/C=C\C[C@H](O)/C=C/C=C\C=C\C=C\[C@@H](O)[C@@H](O)C/C=C\CCC(=O)O [resolvin D1]
[1]
  Abeta phagocytosis: repair
  deregulation of inflammatory genes: repair the deregulation of these genes

## Oc1ccc(/C=C/c2cc(O)cc(O)c2)cc1 [Resveratrol, 3,5,4′-trihydroxy-trans-stilbene]
amyloid-beta
  proteasome degradation of amyloid-beta: promote proteasome degradation of amyloid-beta
